The conditions of data set [1]: precipitated as soon as put in H2O; cited from earlier work.
The target of data set [2] is T1, Sirtuin 2 (Homo sapiens, UniProt Q8IXJ6).
T1 sequence (Q8IXJ6 1-389): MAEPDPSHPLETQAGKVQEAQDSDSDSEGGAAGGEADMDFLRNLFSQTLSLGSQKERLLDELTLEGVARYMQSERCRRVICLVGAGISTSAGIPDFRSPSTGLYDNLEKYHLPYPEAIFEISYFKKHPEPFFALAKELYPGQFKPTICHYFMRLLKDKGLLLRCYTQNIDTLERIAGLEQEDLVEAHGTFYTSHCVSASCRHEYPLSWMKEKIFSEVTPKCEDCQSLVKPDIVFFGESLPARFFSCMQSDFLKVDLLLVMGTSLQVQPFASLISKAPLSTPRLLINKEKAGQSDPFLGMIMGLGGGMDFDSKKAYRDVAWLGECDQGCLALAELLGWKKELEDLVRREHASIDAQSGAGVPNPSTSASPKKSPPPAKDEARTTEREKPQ
The experiment in a line: Sirtuin 2 activity assay (fluorescence). As to conditions: Sirtuin 2.

Data set [3] concerns the target T2, Sirtuin 1 (Homo sapiens, UniProt Q96EB6).
T2 sequence (Q96EB6 1-747): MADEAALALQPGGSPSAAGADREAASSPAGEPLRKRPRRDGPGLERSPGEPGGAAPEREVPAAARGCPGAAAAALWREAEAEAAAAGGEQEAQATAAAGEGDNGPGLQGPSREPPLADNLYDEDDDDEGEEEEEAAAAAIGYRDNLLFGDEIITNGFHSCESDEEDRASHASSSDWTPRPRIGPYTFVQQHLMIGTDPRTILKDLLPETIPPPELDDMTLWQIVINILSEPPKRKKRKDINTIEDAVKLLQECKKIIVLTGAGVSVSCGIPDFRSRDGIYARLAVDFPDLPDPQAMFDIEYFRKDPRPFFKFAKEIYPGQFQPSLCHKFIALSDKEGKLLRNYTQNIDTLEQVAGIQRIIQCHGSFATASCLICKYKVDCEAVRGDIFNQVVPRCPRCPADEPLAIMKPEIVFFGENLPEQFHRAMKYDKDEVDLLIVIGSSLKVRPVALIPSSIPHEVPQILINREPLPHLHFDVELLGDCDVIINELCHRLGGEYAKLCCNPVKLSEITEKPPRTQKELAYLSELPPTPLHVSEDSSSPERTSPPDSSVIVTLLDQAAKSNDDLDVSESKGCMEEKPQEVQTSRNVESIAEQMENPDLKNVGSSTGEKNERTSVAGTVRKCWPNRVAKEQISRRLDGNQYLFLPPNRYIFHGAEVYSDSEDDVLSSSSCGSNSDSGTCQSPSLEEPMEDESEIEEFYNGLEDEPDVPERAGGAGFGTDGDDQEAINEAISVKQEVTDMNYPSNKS
The experiment in a line: Sirtuin 1 activity assay (fluorescence).

Some results are limits rather than exact numbers.

For the compound `CCOc1ccccc1C(=O)Nc1ccc(Cl)c(C(F)(F)F)c1` [N-(4-chloro-3-trifluoromethyl-phenyl)-2-ethoxy-benzamide], the solubility in water result in data set [1] is on record as “very poorly solubile in water”.
For `O=C(CCCCCCC(=O)Nc1ccccc1)NO` [SAHA, reference compound], the IC50 in data set [2] and in data set [3] was > 10 µM in each case.

These data come from patent US9809532B2, “Uses of histone acetyltransferase activators” (THE TRUSTEES OF COLUMBIA UNIVERSITY IN THE CITY OF NEW YORK, priority 2011, dated 2017).
